Data on eight molecules can be found in patent US9738637B2, “Histone demethylase inhibitors” (Quanticel Pharmaceuticals, Inc., priority 2013, dated 2017).

Counter-ions that a name gives are not always drawn.

Chain of JMJD2A (O75164 1-350): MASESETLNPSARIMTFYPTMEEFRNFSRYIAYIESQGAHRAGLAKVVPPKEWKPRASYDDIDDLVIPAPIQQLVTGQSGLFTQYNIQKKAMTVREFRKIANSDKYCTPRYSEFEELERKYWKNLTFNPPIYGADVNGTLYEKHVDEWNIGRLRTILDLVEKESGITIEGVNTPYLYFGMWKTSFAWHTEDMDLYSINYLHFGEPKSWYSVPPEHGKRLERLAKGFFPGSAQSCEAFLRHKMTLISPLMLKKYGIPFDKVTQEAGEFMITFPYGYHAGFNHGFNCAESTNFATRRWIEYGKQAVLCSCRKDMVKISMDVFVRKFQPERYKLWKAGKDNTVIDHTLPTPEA
Chain of JMJD2C (Q9H3R0 2-372): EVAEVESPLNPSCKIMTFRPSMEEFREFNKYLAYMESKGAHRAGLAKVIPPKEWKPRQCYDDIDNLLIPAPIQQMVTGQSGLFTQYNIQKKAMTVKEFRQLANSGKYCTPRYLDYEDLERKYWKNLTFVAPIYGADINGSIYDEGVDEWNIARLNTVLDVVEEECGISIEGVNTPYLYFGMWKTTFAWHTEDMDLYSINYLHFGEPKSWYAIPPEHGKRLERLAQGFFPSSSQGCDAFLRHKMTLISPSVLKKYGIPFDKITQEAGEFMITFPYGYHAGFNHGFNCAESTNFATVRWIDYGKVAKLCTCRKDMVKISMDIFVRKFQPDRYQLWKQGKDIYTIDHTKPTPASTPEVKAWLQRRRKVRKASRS

In one experiment the target is JMJD2A (Homo sapiens (Human), UniProt O75164). The experiment in a line: JMJD2A in vitro enzyme inhibition assay (TR-FRET). It counts as biochemical. Conditions: H3K9me3-biotin peptide. The procedure:
This assay determines the ability of a test compound to inhibit Jarid1A, Jarid1B, JMJD2C, and JMJD2A demethylase activity.
Reaction product was determined quantitatively by TR-FRET after the addition of detection reagent Phycolink Streptavidin-allophycocyanin (Prozyme) and Europium-anti-di-methylated histone H3 lysine 9 (H3K9me2) antibody (PerkinElmer) in the presence of 5 mM EDTA in LANCE detection buffer (PerkinElmer) at a final concentration of 50 nM and 1 nM, respectively.
The assay reaction was initiated by the following: 2 μl of the mixture of 900 nM H3K9me3-biotin labeled peptide and 6 μM alpha-ketoglutaric acid with 2 μl of 11-point serial diluted inhibitor in 3% DMSO were added to each well of plate, followed by the addition of 2 μl of 6 nM JMJD2A to initiate the reaction. The reaction mixture was incubated at room temperature for 30 minutes, and terminated by the addition of 6 μl of 5 mM EDTA in LANCE detection buffer containing 100 nM Phycolink Streptavidin-allophycocyanin and 2 nM Europium-anti-H3K9me2 antibody.
The ability of the compounds disclosed herein to inhibit demethylase activity was quantified and the respective IC50 value was determined.
In general terms: Time-resolved FRET reads energy transfer from a long-lived donor to a nearby acceptor.
Broadly, the IC50 is the midpoint of a concentration-inhibition curve. `COc1cccc(C(O)c2cc3nccc(C(=O)O)c3[nH]2)c1` (racemic) [Example 24, (±)-2-[hydroxy-(3-methoxyphenyl)methyl]-1H-pyrrolo[3,2-b]pyridine-7-carboxylic acid] returned an IC50 of 100 to 1000 nM.
The molecule `O=C(O)c1ccnc2cc(COc3ccccc3)[nH]c12` [Example 39, 2-(phenoxymethyl)-1H-pyrrolo[3,2-b]pyridine-7-carboxylic acid] had an IC50 of 100 to 1000 nM.
For the molecule `Cc1ccccc1-c1cc2nccc(C(=O)O)c2[nH]1` [Example 3, 2-(2-methylphenyl)-1H-pyrrolo[3,2-b]pyridine-7-carboxylic acid], the IC50 is below 100 nM.
Same read-out and setting: the result for `O=C(O)c1ccnc2cc(Cc3ccc(Cl)c(OCC4CC4)c3)[nH]c12` [Example 138, 2-[4-chloro-3-(cyclopropylmethoxy)benzyl]-1H-pyrrolo[3,2-b]pyridine-7-carboxylic acid] reads 1000 to 10000 nM.
The molecule `O=C(O)c1ccnc2cc(Cc3ccccc3)[nH]c12` [Example 7, 2-benzyl-1H-pyrrolo[3,2-b]pyridine-7-carboxylic acid, sodium salt] returned an IC50 of 100 to 1000 nM.
Still for that read-out and setting: the result for `O=C(O)c1ccnc2cc(Cc3ccc(Cl)c(OC(F)(F)F)c3)[nH]c12` [Example 142, 2-[4-chloro-3-(trifluoromethoxy)benzyl]-1H-pyrrolo[3,2-b]pyridine-7-carboxylic acid] reads 100 to 1000 nM; that for `O=C(O)c1ccnc2cc(Cc3ccc(F)c(F)c3)[nH]c12` [Example 126, 2-(3,4-difluorobenzyl)-1H-pyrrolo[3,2-b]pyridine-7-carboxylic acid], below 100 nM; that for `O=C(O)c1ccnc2cc(Cc3ccc(Cl)c(Cl)c3)[nH]c12` [Example 130, 2-(3,4-dichlorobenzyl)-1H-pyrrolo[3,2-b]pyridine-7-carboxylic acid], 100 to 1000 nM.

Another experiment has as its target JMJD2C (Homo sapiens (Human), UniProt Q9H3R0). The experiment in a line: JMJD2C in vitro enzyme inhibition assay (TR-FRET). The class given is biochemical. The settings on record: TR-FRET, H3K9me3-biotin peptide; read-out: IC50 JNJD2C.
As to `COc1cccc(C(O)c2cc3nccc(C(=O)O)c3[nH]2)c1` (racemic) [Example 24, (±)-2-[hydroxy-(3-methoxyphenyl)methyl]-1H-pyrrolo[3,2-b]pyridine-7-carboxylic acid], the IC50 was 100 to 1000 nM.
On the same count and under the same terms, the result for `O=C(O)c1ccnc2cc(COc3ccccc3)[nH]c12` [Example 39, 2-(phenoxymethyl)-1H-pyrrolo[3,2-b]pyridine-7-carboxylic acid] reads below 100 nM.
Same read-out and setting: the result for `Cc1ccccc1-c1cc2nccc(C(=O)O)c2[nH]1` [Example 3, 2-(2-methylphenyl)-1H-pyrrolo[3,2-b]pyridine-7-carboxylic acid] reads 100 to 1000 nM; that for `O=C(O)c1ccnc2cc(Cc3ccc(Cl)c(OCC4CC4)c3)[nH]c12` [Example 138, 2-[4-chloro-3-(cyclopropylmethoxy)benzyl]-1H-pyrrolo[3,2-b]pyridine-7-carboxylic acid], below 100 nM.
Turning to `O=C(O)c1ccnc2cc(Cc3ccccc3)[nH]c12` [Example 7, 2-benzyl-1H-pyrrolo[3,2-b]pyridine-7-carboxylic acid, sodium salt], the IC50 was in the range of 100 to 1000 nM.
On the same count and under the same terms, the result for `O=C(O)c1ccnc2cc(Cc3ccc(Cl)c(OC(F)(F)F)c3)[nH]c12` [Example 142, 2-[4-chloro-3-(trifluoromethoxy)benzyl]-1H-pyrrolo[3,2-b]pyridine-7-carboxylic acid] reads below 100 nM; that for `O=C(O)c1ccnc2cc(Cc3ccc(F)c(F)c3)[nH]c12` [Example 126, 2-(3,4-difluorobenzyl)-1H-pyrrolo[3,2-b]pyridine-7-carboxylic acid], below 100 nM; that for `O=C(O)c1ccnc2cc(Cc3ccc(Cl)c(Cl)c3)[nH]c12` [Example 130, 2-(3,4-dichlorobenzyl)-1H-pyrrolo[3,2-b]pyridine-7-carboxylic acid], below 100 nM.

For another experiment, the target named is Jarid1B (Homo sapiens (Human), UniProt Q9UGL1). The experiment in a line: Jarid1B in vitro enzyme inhibition assay (TR-FRET). The class given is biochemical. The settings on record: TR-FRET, H3K4me3-biotin peptide; read-out: IC50 Jarid1B.
Chain of Jarid1B (Q9UGL1 2-751): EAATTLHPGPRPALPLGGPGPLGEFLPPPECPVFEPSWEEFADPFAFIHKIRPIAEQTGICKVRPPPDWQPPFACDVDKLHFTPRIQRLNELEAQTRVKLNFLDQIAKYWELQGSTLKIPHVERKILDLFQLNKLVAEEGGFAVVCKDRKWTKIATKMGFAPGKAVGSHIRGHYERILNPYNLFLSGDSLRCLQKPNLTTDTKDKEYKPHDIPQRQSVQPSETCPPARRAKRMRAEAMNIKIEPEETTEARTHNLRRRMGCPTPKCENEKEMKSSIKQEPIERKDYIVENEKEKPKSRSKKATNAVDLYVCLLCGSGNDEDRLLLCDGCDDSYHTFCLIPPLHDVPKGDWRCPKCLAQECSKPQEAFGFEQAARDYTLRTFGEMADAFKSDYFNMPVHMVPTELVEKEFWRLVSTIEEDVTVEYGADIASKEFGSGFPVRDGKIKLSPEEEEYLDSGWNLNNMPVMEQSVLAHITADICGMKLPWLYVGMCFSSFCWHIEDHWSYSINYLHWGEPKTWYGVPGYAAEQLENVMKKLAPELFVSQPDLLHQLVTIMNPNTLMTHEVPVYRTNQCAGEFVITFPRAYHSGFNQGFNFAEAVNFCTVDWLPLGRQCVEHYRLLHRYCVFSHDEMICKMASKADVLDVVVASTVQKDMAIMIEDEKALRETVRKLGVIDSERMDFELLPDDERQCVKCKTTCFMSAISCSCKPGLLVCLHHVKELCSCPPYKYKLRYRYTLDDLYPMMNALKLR
Consider `COc1cccc(C(O)c2cc3nccc(C(=O)O)c3[nH]2)c1` (racemic) [Example 24, (±)-2-[hydroxy-(3-methoxyphenyl)methyl]-1H-pyrrolo[3,2-b]pyridine-7-carboxylic acid], for which the IC50 was below 100 nM.
For `O=C(O)c1ccnc2cc(COc3ccccc3)[nH]c12` [Example 39, 2-(phenoxymethyl)-1H-pyrrolo[3,2-b]pyridine-7-carboxylic acid], the 50% inhibitory concentration (IC50) was below 100 nM.
As for `Cc1ccccc1-c1cc2nccc(C(=O)O)c2[nH]1` [Example 3, 2-(2-methylphenyl)-1H-pyrrolo[3,2-b]pyridine-7-carboxylic acid], the IC50 was 100 to 1000 nM.
On the same count and under the same terms, the result for `O=C(O)c1ccnc2cc(Cc3ccc(Cl)c(OCC4CC4)c3)[nH]c12` [Example 138, 2-[4-chloro-3-(cyclopropylmethoxy)benzyl]-1H-pyrrolo[3,2-b]pyridine-7-carboxylic acid] reads below 100 nM; that for `O=C(O)c1ccnc2cc(Cc3ccccc3)[nH]c12` [Example 7, 2-benzyl-1H-pyrrolo[3,2-b]pyridine-7-carboxylic acid, sodium salt], 100 to 1000 nM; that for `O=C(O)c1ccnc2cc(Cc3ccc(Cl)c(OC(F)(F)F)c3)[nH]c12` [Example 142, 2-[4-chloro-3-(trifluoromethoxy)benzyl]-1H-pyrrolo[3,2-b]pyridine-7-carboxylic acid], below 100 nM.
With `O=C(O)c1ccnc2cc(Cc3ccc(F)c(F)c3)[nH]c12` [Example 126, 2-(3,4-difluorobenzyl)-1H-pyrrolo[3,2-b]pyridine-7-carboxylic acid], the IC50 lay in the range of 1000 to 10000 nM.
As for `O=C(O)c1ccnc2cc(Cc3ccc(Cl)c(Cl)c3)[nH]c12` [Example 130, 2-(3,4-dichlorobenzyl)-1H-pyrrolo[3,2-b]pyridine-7-carboxylic acid], the IC50 lay within 1000 to 10000 nM.

The subject of another experiment is KDM5A and KDM5B. The experiment in a line: In vitro cell-based assay, ZR-75-1 cell line: tri-methyl H3K4 immuno-blotting (cellular inhibition of KDM5A/B). Conditions: ZR-75-1 breast cancer cells, 72 hours, read-out: IC50 ZR-75-1 cell-MOA. From the text:
This quantitative immuno-blotting assay measures the amount tri-methylated histone H3 at amino acid Lysine number 4, a specific substrate […] of the direct enzymatic activity of the histone demethylases KDM5A and KDM5B from extracts of the ZR-75-1 breast cancer cell line.
This assay is a fluorometric immunoassay for the quantification of tri-methyl H3K4 extracted from cells treated with test compound and is used as a measure of the cellular inhibition of KDM5A/B.
Cells were left in the presence of test compound for 72 hours. Extracts were prepared containing all of the cellular histone material using detergent based lysis and sonication methods. These lysates were subsequently normalized for total protein content using a colorimetric bicinchonic acid assay (MicroBCA Pierce/Thermo Scientific). Normalized cell extracts were then subjected to typical immuno-blotting procedures using NuPage reagents (Life Technologies). Electrophoretically separated histones were then transferred and immobilized using polyvinylidene difluoride membrane (Immobilon-FL Millipore). The amount of tri-methylated lysine 4 of histone H3 was detected using an antibody specific to the tri-methylated state (Cell Signaling Technologies) and quantified on an infrared imager using a densitometry software package (Odyssey CLx, Image Studio, Li-Cor). This background subtracted densitometry value was reported as a ration of the GAPDH amount for that sample and then calculated as a percent of the DMSO treated sample. The software package XL-fit (IDBS) was then used to calculate a relative IC50 value for the dilution series of a given test compound according to the equation: fit=(D+((Vmax*(x^n))/((x^n)+(Km^n)))).
Regarding `O=C(O)c1ccnc2cc(Cc3ccccc3)[nH]c12` [Example 7, 2-benzyl-1H-pyrrolo[3,2-b]pyridine-7-carboxylic acid, sodium salt], the IC50 was above 10 µM.

For another experiment, the target named is Jarid1A (Homo sapiens (Human), UniProt P29375). The experiment in a line: Jarid1A in vitro enzyme inhibition assay (TR-FRET). Conditions: H3K4me3-biotin peptide. The class given is biochemical.
Chain of Jarid1A (P29375 1-1090): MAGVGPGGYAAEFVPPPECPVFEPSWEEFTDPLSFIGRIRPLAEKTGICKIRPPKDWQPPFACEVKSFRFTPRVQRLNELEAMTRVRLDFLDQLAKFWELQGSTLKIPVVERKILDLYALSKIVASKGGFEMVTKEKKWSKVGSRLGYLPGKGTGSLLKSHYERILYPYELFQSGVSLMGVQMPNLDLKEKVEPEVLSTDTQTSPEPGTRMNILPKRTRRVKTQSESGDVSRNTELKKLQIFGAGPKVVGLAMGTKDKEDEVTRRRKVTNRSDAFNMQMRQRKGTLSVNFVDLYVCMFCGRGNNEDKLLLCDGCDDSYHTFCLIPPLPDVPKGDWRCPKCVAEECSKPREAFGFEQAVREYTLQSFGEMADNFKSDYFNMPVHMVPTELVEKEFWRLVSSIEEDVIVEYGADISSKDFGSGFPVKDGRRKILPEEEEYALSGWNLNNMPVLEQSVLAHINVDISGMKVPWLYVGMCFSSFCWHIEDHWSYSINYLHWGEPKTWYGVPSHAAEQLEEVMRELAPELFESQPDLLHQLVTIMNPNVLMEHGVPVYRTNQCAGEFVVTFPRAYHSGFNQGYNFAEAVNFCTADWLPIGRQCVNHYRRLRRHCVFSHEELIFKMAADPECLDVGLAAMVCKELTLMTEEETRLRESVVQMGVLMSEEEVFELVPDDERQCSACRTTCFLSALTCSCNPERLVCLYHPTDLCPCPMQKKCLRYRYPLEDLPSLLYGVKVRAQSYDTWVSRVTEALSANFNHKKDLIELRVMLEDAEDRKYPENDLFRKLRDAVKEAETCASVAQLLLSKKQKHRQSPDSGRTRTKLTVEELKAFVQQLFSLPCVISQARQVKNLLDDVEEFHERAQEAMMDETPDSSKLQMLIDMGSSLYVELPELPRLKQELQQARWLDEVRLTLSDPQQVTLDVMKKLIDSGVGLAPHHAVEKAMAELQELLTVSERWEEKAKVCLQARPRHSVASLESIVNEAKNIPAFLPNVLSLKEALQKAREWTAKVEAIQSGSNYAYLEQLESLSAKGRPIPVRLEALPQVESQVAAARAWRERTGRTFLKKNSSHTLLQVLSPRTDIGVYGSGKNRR
Turning to `COc1cccc(C(O)c2cc3nccc(C(=O)O)c3[nH]2)c1` (racemic) [Example 24, (±)-2-[hydroxy-(3-methoxyphenyl)methyl]-1H-pyrrolo[3,2-b]pyridine-7-carboxylic acid], the IC50 is below 100 nM.
`O=C(O)c1ccnc2cc(COc3ccccc3)[nH]c12` [Example 39, 2-(phenoxymethyl)-1H-pyrrolo[3,2-b]pyridine-7-carboxylic acid] had an IC50 below 100 nM.
Still for that read-out and setting: the result for `Cc1ccccc1-c1cc2nccc(C(=O)O)c2[nH]1` [Example 3, 2-(2-methylphenyl)-1H-pyrrolo[3,2-b]pyridine-7-carboxylic acid] reads 100 to 1000 nM; that for `O=C(O)c1ccnc2cc(Cc3ccc(Cl)c(OCC4CC4)c3)[nH]c12` [Example 138, 2-[4-chloro-3-(cyclopropylmethoxy)benzyl]-1H-pyrrolo[3,2-b]pyridine-7-carboxylic acid], 100 to 1000 nM.
Molecule `O=C(O)c1ccnc2cc(Cc3ccccc3)[nH]c12` [Example 7, 2-benzyl-1H-pyrrolo[3,2-b]pyridine-7-carboxylic acid, sodium salt] yielded an IC50 of 100 to 1000 nM.
For the molecule `O=C(O)c1ccnc2cc(Cc3ccc(Cl)c(OC(F)(F)F)c3)[nH]c12` [Example 142, 2-[4-chloro-3-(trifluoromethoxy)benzyl]-1H-pyrrolo[3,2-b]pyridine-7-carboxylic acid], the IC50 was in the range of 100 to 1000 nM.
In turn, `O=C(O)c1ccnc2cc(Cc3ccc(F)c(F)c3)[nH]c12` [Example 126, 2-(3,4-difluorobenzyl)-1H-pyrrolo[3,2-b]pyridine-7-carboxylic acid] yielded an IC50 of 1000 to 10000 nM.
Still for that read-out and setting: the result for `O=C(O)c1ccnc2cc(Cc3ccc(Cl)c(Cl)c3)[nH]c12` [Example 130, 2-(3,4-dichlorobenzyl)-1H-pyrrolo[3,2-b]pyridine-7-carboxylic acid] reads 1000 to 10000 nM.
